These results are taken from patent US8592426B2, “Aryl-benzocycloalkyl amide derivatives” (Hoffmann—La Roche Inc., priority 2011, dated 2013).

pIC50, pKi: −log10 of the molar value.

For assay [1], the target named is T1, Bradykinin-1 receptor (Homo sapiens (Human), UniProt P46663). The assay is described as follows: Receptor binding assay (B1R Binding Assay), [3H]-Kallidin (Des Arg10, Leu9) displacement. As to conditions: membranes from CHO-K1 cells overexpressing Bradykinin-1 receptor; 6 nM radioligand. The protocol: Binding assays were done with membranes from CHO-K1 cells overexpressing Bradykinin-1 receptor.
T1 sequence (P46663 whole entry): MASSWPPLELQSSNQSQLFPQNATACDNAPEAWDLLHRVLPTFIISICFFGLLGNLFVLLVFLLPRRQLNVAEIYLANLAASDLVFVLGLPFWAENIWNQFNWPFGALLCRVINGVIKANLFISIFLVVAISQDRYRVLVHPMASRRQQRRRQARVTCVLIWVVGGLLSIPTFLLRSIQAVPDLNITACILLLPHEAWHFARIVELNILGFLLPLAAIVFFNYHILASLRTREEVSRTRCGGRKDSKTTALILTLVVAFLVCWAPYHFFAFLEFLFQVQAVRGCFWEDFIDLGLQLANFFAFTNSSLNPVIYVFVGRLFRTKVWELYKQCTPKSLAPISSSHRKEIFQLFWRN
To determine non-specific binding 10 μM Lys-(Des-Arg^9)-Bradykinin (Bachem) was added. Membranes were harvested through GF/B (glass fiber filter; PerkinElmer) plates, equilibrated with 0.5% polyethylenimine, air dried at 50° C. for 2 h. Radioactivity was determined by counting in a topcounter (NXT Packard).

Assay [2] addresses T1, Bradykinin-1 receptor. The assay is described as follows: Calcium mobilization assay (FLIPR, Fluo-4) in GeneBLAzer Bradykinin (B1)-NFAT-bla CHO-K1 cells. It counts as cell-based. As to conditions: antagonist activity; CHO-K1 cells stably overexpressing the human bradykinin 1 receptor; read-out: Ca mobilization Assay IC50.

As usually defined, the pKi is the negative decadic logarithm of the Ki, by convention in mol/L. High values mean a small Ki, low ones a large Ki. By pIC50 is commonly meant the IC50 on a negative log10 scale, so that one unit is a factor of ten. Compound `COc1cc(C(=O)NC2(C(=O)N[C@H]3CCc4cc(-c5cc(Cl)cc(F)c5-c5noc(C)n5)ccc43)CC2)on1` [Example 30, 3-Methoxy-isoxazole-5-carboxylic acid(1-{(S)-5-[5-chloro-3-fluoro-2-(5-methyl-[1,2,4]oxadiazol-3-yl)-phenyl]-indan-1-ylcarbamoyl}-cyclopropyl)-amide] showed a pKi in assay [1] of 8.41. The pIC50 in assay [2] was 10.00.
For `Cc1nc(-c2c(F)cc(Cl)cc2-c2cnc3c(c2)CCC3NC(=O)C2(NC(=O)c3ccnnc3)CC2)no1` (single isomer, unassigned) [Example 40, Pyridazine-4-carboxylic acid(1-{(R or S) 3-[5-chloro-3-fluoro-2-(5-methyl-[1,2,4]oxadiazol-3-yl)-phenyl]-6,7-dihydro-5H-[1]pyrindin-7-ylcarbamoyl}-cyclopropyl)-amide], in that order: 6.89 and 7.45.
`O=C(NC1(C(=O)NC2CCc3cc(-c4cc(Cl)cc(Cl)c4OCC(F)F)ccc32)CC1)C(F)(F)F` (racemic) [Example 2, 1-(2,2,2-Trifluoro-acetylamino)-cyclopropanecarboxylic acid (rac)-{5-[3,5-dichloro-2-(2,2-difluoro-ethoxy)-phenyl]-indan-1-yl}-amide] gave a negative-log Ki (pKi) in assay [1] of 6.84. The negative logarithm of the IC50 (pIC50) in assay [2] is 7.11.
In assay [1], `Cc1nc(-c2c(F)cc(Cl)cc2-c2cnc3c(c2)CCC3NC(=O)C2(NC(=O)c3ccno3)CC2)no1` (racemic) [Example 43, Isoxazole-5-carboxylic acid(1-{(rac)-3-[5-chloro-3-fluoro-2-(5-methyl-[1,2,4]oxadiazol-3-yl)-phenyl]-6,7-dihydro-5H-[1]pyrindin-7-ylcarbamoyl}-cyclopropyl)-amide] showed a negative-log Ki (pKi) of 8.20. Moreover, the pIC50 in assay [2] was 9.52.
With `Cc1nc(-c2c(F)cc(Cl)cc2-c2cnc3c(c2)CCC3NC(=O)C2(NC(=O)c3ccnnc3)CC2)no1` (racemic) [Example 39, Pyridazine-4-carboxylic acid(1-{(rac) 3-[5-chloro-3-fluoro-2-(5-methyl-[1,2,4]oxadiazol-3-yl)-phenyl]-6,7-dihydro-5H-[1]pyrindin-7-ylcarbamoyl}-cyclopropyl)-amide], in assay [1], the pKi is 8.12. For the same compound, in assay [2], the pIC50 is 9.22.
As to `COc1cc(C(=O)NC2(C(=O)NC3CCc4cc(-c5cc(Cl)cc(F)c5-c5noc(C)n5)cc(F)c43)CC2)on1` (racemic) [Example 35, 3-Methoxy-isoxazole-5-carboxylic acid(1-{(rac)-5-[5-chloro-3-fluoro-2-(5-methyl-[1,2,4]oxadiazol-3-yl)-phenyl]-7-fluoro-indan-1-ylcarbamoyl}-cyclopropyl)-amide], the pKi in assay [1] is 7.77. In addition, the negative logarithm of the IC50 (pIC50) in assay [2] was 9.30.
The corresponding values for `Cn1nnc(-c2c(F)cc(Cl)cc2-c2cnc3c(c2)CCC3NC(=O)C2(NC(=O)OC(C)(C)C)CC2)n1` (racemic) [Example 54, (1-{(rac)-3-[5-Chloro-3-fluoro-2-(2-methyl-2H-tetrazol-5-yl)-phenyl]-6,7-dihydro-5H-[1]pyrindin-7-ylcarbamoyl}-cyclopropyl)-carbamic acid tert-butyl ester] are 7.20 and 8.24.
In assay [1], `Cc1nc(-c2c(F)cc(Cl)cc2-c2cc(F)c3c(c2)CCC3NC(=O)C2(N)CC2)no1` (racemic) [Example 32, 1-Amino-cyclopropanecarboxylic acid{(rac)-5-[5-chloro-3-fluoro-2-(5-methyl-[1,2,4]oxadiazol-3-yl)-phenyl]-7-fluoro-indan-1-yl}-amide] gave a pKi of 6.34. The pIC50 in assay [2] is 7.02.
The corresponding values for `COc1ncc(C(=O)NC2(C(=O)NC3CCc4cc(-c5cc(Cl)cc(F)c5-c5noc(C)n5)cnc43)CC2)cn1` (racemic) [Example 42, 2-Methoxy-pyrimidine-5-carboxylic acid(1-{(rac)-3-[5-chloro-3-fluoro-2-(5-methyl-[1,2,4]oxadiazol-3-yl)-phenyl]-6,7-dihydro-5H-[1]pyrindin-7-ylcarbamoyl}-cyclopropyl)-amide] are 8.40 and 9.70.
In turn, `Cc1nc(-c2c(F)cc(Cl)cc2-c2ccc3c(c2)SCC3NC(=O)C2(NC(=O)C(F)(F)F)CC2)no1` (racemic) [Example 21, 1-(2,2,2-Trifluoro-acetylamino)-cyclopropanecarboxylic acid{(rac)-6-[5-chloro-3-fluoro-2-(5-methyl-[1,2,4]oxadiazol-3-yl)-phenyl]-2,3-dihydro-benzo[b]thiophen-3-yl}-amide] gave a pKi in assay [1] of 8.02. Moreover, the negative logarithm of the IC50 (pIC50) in assay [2] is 8.64.
Take `Cc1nc(-c2c(F)cc(Cl)cc2-c2ccc3c(c2)CC[C@@H]3NC(=O)C2(NC(=O)OC(C)(C)C)CC2)no1` [Example 23, (1-{(S)-5-[5-Chloro-3-fluoro-2-(5-methyl-[1,2,4]oxadiazol-3-yl)-phenyl]-indan-1-ylcarbamoyl}-cyclopropyl)-carbamic acid tert-butyl ester]: the pKi in assay [1] is 6.17. Moreover, the pIC50 in assay [2] is 6.48.
On to `Cc1nc(-c2c(F)cc(Cl)cc2-c2ccc3c(c2)CC[C@@H]3NC(=O)C2(N)CC2)no1` [Example 24, 1-Amino-cyclopropanecarboxylic acid{(S)-5-[5-chloro-3-fluoro-2-(5-methyl-[1,2,4]oxadiazol-3-yl)-phenyl]-indan-1-yl}-amide], for which the negative logarithm of the Ki (pKi) in assay [1] is 7.44. The pIC50 in assay [2] was 8.30.
